Results as given in PMC6289942, “Development of a NS2B/NS3 protease inhibition assay using AlphaScreen® beads for screening of anti-dengue activities” (Heliyon, 2018).
Where two headings read alike, the source gives them in different places. Where a SMILES comes first, the peptide text is derived from it. [ ]: non-standard residue; d: D form. The star is where a group is joined. Sta = CC(C)C[C@H](N)[C@@H](O)CC(=O)O; Isovaleryl = CC(C)CC(=O)*

Experiments:
dengue NS2B/NS3 protease = tested on: dengue NS2B/NS3 protease; design: method as in PMID 11581268; details: cited from earlier work
NS2B/NS3 protease [1] = target: T1, NS2B/NS3 protease (Dengue virus type 2, UniProt P14340); experiment: NS2B/NS3 protease inhibition assay using AlphaScreen beads; format: biochemical
T1 construct: active site of the serine protease domain of the NS2B/NS3 protease; made in house; host or cells: Escherichia coli XL 1-Blue MRF
T1 sequence (P14340 1476-1653): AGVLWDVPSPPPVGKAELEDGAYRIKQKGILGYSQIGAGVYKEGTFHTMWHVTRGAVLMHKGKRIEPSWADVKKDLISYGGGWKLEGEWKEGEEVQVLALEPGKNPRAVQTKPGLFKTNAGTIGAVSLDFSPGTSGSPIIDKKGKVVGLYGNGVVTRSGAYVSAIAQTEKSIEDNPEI
T1 sequence (P14340 1346-1475): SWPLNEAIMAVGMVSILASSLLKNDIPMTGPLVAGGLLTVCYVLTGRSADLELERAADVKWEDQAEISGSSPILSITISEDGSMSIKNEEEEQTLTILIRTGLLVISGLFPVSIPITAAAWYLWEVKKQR
Description: The peptide substrate used in this assay has a known NS2B/NS3 cleavage site between lysine (K), and serine (S) (GRK ↓ SLT), and is a part of a sequence of dengue polyprotein precursor (NS3/NS4A) as reported by Khumtong and co-workers. The peptide substrate was tagged with a specific sequence ([…]) at N-terminal and polyhistidine at C-terminal. This specific sequence has a binding affinity towards StrepTactin®, an engineered streptavidin [37]. Glycine linkers were added on both sides of untagged peptide substrate (Fig. 1a and b). To determine the extent of N-terminal labelling on the peptide substrate, competitive displacement assay using AlphaScreen® TruHits Detection Kit (Perkin Elmer, USA) consisting of StrepTactin® donor beads and biotinylated acceptor beads was carried out. On the other hand, to ensure that the peptide substrate is adequately tagged with polyhistidine on the C-terminal, competitive binding assay using Histidine (Nickel Chelate) Detection Kit (Perkin Elmer, USA) was carried out. This kit comprises of both StrepTactin® donor beads and nickel chelate acceptor beads.
In general, AlphaScreen® experiments were carried out in white 384-well plates (Perkin Elmer, Boston, MA, USA) in a total reaction volume of 25 μL under subdued light. […] The 384-well plate was read using Envision 2104 Multilabel Plate Reader (Perkin Elmer, Boston, MA, USA) according to AlphaScreen® settings (excitation and emission wavelength at 680nm and 520-620nm, respectively). […] After incubating for 1 h, 5 μL of donor beads and acceptor beads were added, followed by 1 h incubation at room temperature prior to reading of signal. […] The optimum conditions were determined based on the maximum signal obtained from well containing peptide alone and minimum signal produced by well containing peptide substrate, enzyme and beads, indicating maximum cleavage of the NS2B/NS3 enzyme on the substrate and lowest background signal. […] Since the amount obtained for diversity 0713 was in minute quantity and was insufficient for subsequent testing, diversity 0713 was not used as control in this study. […]

NS2B/NS3 protease [2] = target: T1, NS2B/NS3 protease; experiment: Protease assay using fluorogenic peptide substrate (BOC-Gly-Arg-Arg-AMC); format: biochemical
Description: Dengue NS2B/NS3 protease enzyme was expressed and purified as previously described. Briefly, NS2B/NS3 expression plasmid was propagated in Escherichia coli strain XL 1-Blue MRF (Agilent Technologies, Santa Clara, CA).The enzyme was isolated and purified using Ni^2+-NTA (nickel-nitrilotriacetic acid) resin-based column. The specific proteolytic activity of NS2B/NS3 protease was determined using similar formula as published for other proteases. Protease assay using fluorogenic peptide susbtrate (BOC-Gly-Arg-Arg-AMC) was also used to determine the NS2B/NS3 inhibition activities of the controls and derivatives. […] Cleavage of the substrate by NS2B/NS3 protease and detection of the fluorescence signal were determined using Envision 2104 Multilabel Plate Reader (Perkin Elmer, Boston, MA, USA) at excitation and emission wavelength of 385 nm and 465 nm, respectively. […]
IC50 values were derived based on non-linear regression analysis computed using GraphPad Prism 5.0 (GraphPad Software, La Jolla, CA, USA). […] The zʹ factor was calculated as described by Zhang and co-workers. zʹ factor = 1–3×(σH+σL)/|μH−μL|, where σH and σL represent the standard deviations of the AlphaScreen® signal of the substrate in the absence (high signal, H) and presence (low signal, L) of the protease, and μH and μL represent the mean values of high signal and low signal, respectively. […]

[3] = Solubility of compounds for screening (DMSO stock); format: physicochemical; details: needed 10% v/v DMSO in the assay
DENV2 protease = tested on: DENV2 protease; design: method as in PMID 16621533; details: cited from earlier work; for inhibition of protease activity: 80 ppm (200 μM) ref 21; for Ki: protease assay ref 21

CC(C)CC(=O)N[C@H](C(=O)N[C@H](C(=O)N[C@@H](CC(C)C)[C@@H](O)CC(=O)N[C@@H](C)C(=O)N[C@@H](CC(C)C)[C@@H](O)CC(=O)O)C(C)C)C(C)C [pepstatin A] (Isovaleryl-VV[Sta]A[Sta]-OH)
enzyme inhibition (in words) (dengue NS2B/NS3 protease): no enzyme inhibition

Aprotinin
IC50 (NS2B/NS3 protease [1]; AlphaScreen assay, read-out: IC50): 0.35 µM | IC50 (dengue NS2B/NS3 protease; published value, different assay system ref 59): 0.065 µM | IC50 (NS2B/NS3 protease [2]; protease assay, fluorogenic substrate, 1 h at 37 °C, read-out: IC50): 0.15 µM

Nc1nc(SCc2ccccc2)c2ncn(Cc3ccccc3)c2n1 [Compound 9, 9-benzyl-6-(benzylsulfanyl)-9H-purin-2-amine]
solubility (in words) [3]: low solubility

CC(C)=CC[C@@H]1C(C)=CC[C@@H](c2ccccc2)[C@@H]1C(=O)c1c(O)cc(O)cc1O [4-hydroxypanduratin A]
inhibition of protease activity (DENV2 protease): 65–80% | Ki (DENV2 protease): 21 µM

Cc1ccc(S(=O)(=O)N[C@@H](CCCCN)C(=O)CCl)cc1.Cl [N-Tosyl-L-lysine chloromethyl ketone.hydrochloride]
enzyme inhibition (in words) (dengue NS2B/NS3 protease): no enzyme inhibition

Nc1nc(SCc2ccccc2)c2[nH]cnc2n1 [Compound 8, 6-(benzylsulfanyl)-9H-purin-2-amine]
solubility (in words) [3]: low solubility

Fc1ccc(C=Nc2nc(S)c3nc[nH]c3n2)cc1 [Compound 12, 2-(4-fluorobenzylideneamino)-9H-purine-6-thiol]
solubility (in words) [3]: low solubility

c1ccc(CNc2nc(SCc3ccccc3)c3ncn(Cc4ccccc4)c3n2)cc1 [Compound 10, N, 9-dibenzyl-6-(benzylsulfanyl)-9H-purin-2-amine]
solubility (in words) [3]: low solubility

Cc1ccc(S(=O)(=O)N[C@@H](Cc2ccccc2)C(=O)CCl)cc1 [N-Tosyl-L-phenylalanine chloromethyl ketone]
inhibition of enzyme (dengue NS2B/NS3 protease; 1 mM ref 59): 20–30%

c1ccc(CSc2nc(N(Cc3ccccc3)Cc3ccccc3)nc3c2ncn3Cc2ccccc2)cc1 [Compound 11, N, N, 9-tribenzyl-6-(benzylsulfanyl)-9H-purin-2-amine]
solubility (in words) [3]: low solubility

COc1cc(O)c(C(=O)[C@@H]2[C@H](CC=C(C)C)C(C)=CC[C@H]2c2ccccc2)c(O)c1 [Panduratin A]
IC50 (NS2B/NS3 protease [1]): > 100 µM | inhibition at 100 µM (NS2B/NS3 protease [1]; 100 μM, AlphaScreen assay, read-out: maximum inhibition at the highest concentration tested): > 50% | IC50 (NS2B/NS3 protease [2]): 211 µM | inhibition of protease activity (DENV2 protease): 65–80% | Ki (DENV2 protease): 25 µM

CC(=O)N[C@@H](CC(C)C)C(=O)N[C@@H](CC(C)C)C(=O)N[C@H](C=O)CCCNC(=N)N [leupeptin]
enzyme inhibition (in words) (dengue NS2B/NS3 protease): no enzyme inhibition

N=C(N)c1ccccc1 [benzamidine]
enzyme inhibition (in words) (dengue NS2B/NS3 protease): no enzyme inhibition

Cl.N=C(N)c1ccc(CS(=O)(=O)F)cc1 [4-Amidinophenylmethanesulfonyl fluoride.hydrochloride]
enzyme inhibition (in words) (dengue NS2B/NS3 protease): no enzyme inhibition

O=S(=O)(F)Cc1ccccc1 [phenylmethylsulfonyl fluoride]
enzyme inhibition (in words) (dengue NS2B/NS3 protease): no enzyme inhibition

Cl.NCCc1ccc(S(=O)(=O)F)cc1 [4-(2-aminoethyl) benzenesulfonyl fluoride.hydrochloride]
inhibition of enzyme (dengue NS2B/NS3 protease; 500 μM ref 59): 20–30%

B1: soybean trypsin inhibitor: serine protease inhibitor (protein, UniProt P01070 25-205, looked up)
Trypsin inhibitor A: DFVLDNEGNPLENGGTYYILSDITAFGGIRAAPTGNERCPLTVVQSRNELDKGIGTIISSPYRIRFIAEGHPLSLKFDSFAVIMLCVGIPTEWSVVEDLPEGPAVKIGENKDAMDGWFRLERVSDDEFNNYKLVFCPQQAEDDKCGDIGISIDHDDGTRRLVVSKNKPLVVQFQKLDKESL
enzyme inhibition (in words) (dengue NS2B/NS3 protease): no enzyme inhibition
